# Values quoted from earlier work in patent US20180243207A1, “DUAL-RELEASE FLEXIBLE F[…] IN […] HOSPICE CARES OF ELDERLY PATIENTS” (priority 2017, published 2018).
# Key:
# α2-GABAA receptors = target: T1, α2-GABAA receptors (Homo sapiens, UniProt P18507+P47869)
# T1 sequence (P47869 29-451): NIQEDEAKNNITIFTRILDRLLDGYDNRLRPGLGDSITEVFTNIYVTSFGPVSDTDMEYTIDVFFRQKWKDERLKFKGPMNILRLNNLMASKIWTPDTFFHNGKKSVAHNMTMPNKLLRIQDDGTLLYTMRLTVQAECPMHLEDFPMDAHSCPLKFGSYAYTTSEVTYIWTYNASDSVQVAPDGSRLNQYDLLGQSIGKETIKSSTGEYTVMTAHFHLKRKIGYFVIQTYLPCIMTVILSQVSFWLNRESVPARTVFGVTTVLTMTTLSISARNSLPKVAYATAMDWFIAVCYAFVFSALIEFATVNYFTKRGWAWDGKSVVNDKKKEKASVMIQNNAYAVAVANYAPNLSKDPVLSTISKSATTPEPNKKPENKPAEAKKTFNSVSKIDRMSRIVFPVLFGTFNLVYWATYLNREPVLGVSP
# T1 sequence (P18507 40-467 limits assumed): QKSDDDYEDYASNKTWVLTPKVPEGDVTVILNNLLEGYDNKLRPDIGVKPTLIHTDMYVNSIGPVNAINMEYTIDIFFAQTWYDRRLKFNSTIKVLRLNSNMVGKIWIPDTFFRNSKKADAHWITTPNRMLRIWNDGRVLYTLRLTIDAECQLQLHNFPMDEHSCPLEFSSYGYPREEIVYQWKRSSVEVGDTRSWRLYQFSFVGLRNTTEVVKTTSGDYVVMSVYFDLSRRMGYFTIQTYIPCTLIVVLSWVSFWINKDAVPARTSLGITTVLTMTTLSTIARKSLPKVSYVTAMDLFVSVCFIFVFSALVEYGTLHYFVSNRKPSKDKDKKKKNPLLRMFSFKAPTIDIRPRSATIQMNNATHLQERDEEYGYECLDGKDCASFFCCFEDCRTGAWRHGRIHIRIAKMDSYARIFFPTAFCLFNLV
# T1 sequence (P28472 26-473 partner): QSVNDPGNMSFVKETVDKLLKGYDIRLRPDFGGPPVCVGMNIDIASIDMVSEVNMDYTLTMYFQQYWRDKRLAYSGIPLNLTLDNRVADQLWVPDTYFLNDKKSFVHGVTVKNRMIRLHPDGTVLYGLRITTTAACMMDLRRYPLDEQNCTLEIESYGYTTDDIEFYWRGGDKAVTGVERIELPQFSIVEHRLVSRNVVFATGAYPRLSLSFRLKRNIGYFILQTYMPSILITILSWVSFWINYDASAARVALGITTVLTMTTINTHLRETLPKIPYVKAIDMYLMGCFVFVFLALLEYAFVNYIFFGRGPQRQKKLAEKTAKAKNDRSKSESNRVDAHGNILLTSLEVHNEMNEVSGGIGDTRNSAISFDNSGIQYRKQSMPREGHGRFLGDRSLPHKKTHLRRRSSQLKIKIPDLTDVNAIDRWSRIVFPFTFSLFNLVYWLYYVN
# α3-GABAA receptors = target: T2, α3-GABAA receptors (Homo sapiens, UniProt P18507+P34903)
# T2 sequence (P34903 29-492): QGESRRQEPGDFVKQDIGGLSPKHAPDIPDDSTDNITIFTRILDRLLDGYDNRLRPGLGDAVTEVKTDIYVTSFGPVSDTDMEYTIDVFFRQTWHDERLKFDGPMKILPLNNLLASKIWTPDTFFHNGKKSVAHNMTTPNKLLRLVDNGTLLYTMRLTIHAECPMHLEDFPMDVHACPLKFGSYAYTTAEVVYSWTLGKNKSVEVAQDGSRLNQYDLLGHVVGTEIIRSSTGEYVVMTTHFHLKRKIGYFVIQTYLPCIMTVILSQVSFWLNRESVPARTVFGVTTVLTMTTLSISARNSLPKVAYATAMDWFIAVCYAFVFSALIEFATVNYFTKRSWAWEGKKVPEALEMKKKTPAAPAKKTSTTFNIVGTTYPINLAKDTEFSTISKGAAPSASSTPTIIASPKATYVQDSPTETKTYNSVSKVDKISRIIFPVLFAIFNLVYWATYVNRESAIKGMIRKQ
# T2 sequence (P18507 40-467 limits assumed): T1 sequence (P18507 40-467 limits assumed)
# T2 sequence (P28472 26-473 partner): T1 sequence (P28472 26-473 partner)
smiles,measurement,setting,value
O=C1Nc2ccc(Cl)cc2C(c2ccccc2Cl)=NC1O (centres unmarked) [Lorazepam],affinity to α2-GABAA receptors,α2-GABAA receptors,intermediate
same,affinity to α3-GABAA receptors,α3-GABAA receptors,high
